# Earlier results in patent publication US20220202803A1, “COMBINATION THERAPIES INCLUDING INHIBITORS OF DIHYDROOROTATE DEHYDROGENASE” (Clear Creek Bio, Inc., priority 2019, published 2022).
# How the values were obtained:
# [1] = tested on: solid tumor malignancies; conditions: administered over a 5-day period followed by a 3-week gap or once per week for three weeks followed by a 1-week gap
# [2] = tested on: mouse model of AML; conditions: daily administration of high doses
smiles,measurement,setting,value
"Cc1c(-c2ccc(-c3ccccc3F)cc2)nc2ccc(F)cc2c1C(=O)O [brequinar, 6-fluoro-2-(2′-fluoro-1,1′ biphenyl-4-yl)-3-methyl-4-quinoline carboxylic acid]",efficacy in solid tumor malignancies,[1],ineffective
same,adverse effects,[2],"weight loss, anemia, and thrombocytopenia"
